The target in data set [1] is T1, Peptidyl-prolyl cis-trans isomerase FKBP4 (Homo sapiens, UniProt Q02790).
T1 sequence (Q02790 whole entry): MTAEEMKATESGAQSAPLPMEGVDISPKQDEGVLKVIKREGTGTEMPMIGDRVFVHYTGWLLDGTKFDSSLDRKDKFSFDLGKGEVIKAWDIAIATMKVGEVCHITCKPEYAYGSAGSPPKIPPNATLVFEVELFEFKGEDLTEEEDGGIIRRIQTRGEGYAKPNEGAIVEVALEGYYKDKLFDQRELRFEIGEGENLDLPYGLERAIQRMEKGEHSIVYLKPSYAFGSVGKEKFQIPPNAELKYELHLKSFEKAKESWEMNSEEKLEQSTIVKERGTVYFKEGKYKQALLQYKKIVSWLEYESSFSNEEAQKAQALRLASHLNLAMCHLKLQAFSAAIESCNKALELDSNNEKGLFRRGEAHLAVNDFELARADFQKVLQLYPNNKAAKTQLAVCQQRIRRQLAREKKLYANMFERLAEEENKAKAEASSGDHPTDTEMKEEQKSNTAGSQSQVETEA
As to the kind of experiment: Inhibition of GST-tagged human FKBP52 expressed in Escherichia coli BL21 (DE3) using NH2-EDASRMEEVD-COOH peptide as substrate preincubated for 15 mins followed by substrate addition measured after 15 mins by Alpha Screen assay.

In data set [2] the target is T2, Peptidyl-prolyl cis-trans isomerase FKBP5 (Homo sapiens, UniProt Q13451).
T2 sequence (Q13451 whole entry): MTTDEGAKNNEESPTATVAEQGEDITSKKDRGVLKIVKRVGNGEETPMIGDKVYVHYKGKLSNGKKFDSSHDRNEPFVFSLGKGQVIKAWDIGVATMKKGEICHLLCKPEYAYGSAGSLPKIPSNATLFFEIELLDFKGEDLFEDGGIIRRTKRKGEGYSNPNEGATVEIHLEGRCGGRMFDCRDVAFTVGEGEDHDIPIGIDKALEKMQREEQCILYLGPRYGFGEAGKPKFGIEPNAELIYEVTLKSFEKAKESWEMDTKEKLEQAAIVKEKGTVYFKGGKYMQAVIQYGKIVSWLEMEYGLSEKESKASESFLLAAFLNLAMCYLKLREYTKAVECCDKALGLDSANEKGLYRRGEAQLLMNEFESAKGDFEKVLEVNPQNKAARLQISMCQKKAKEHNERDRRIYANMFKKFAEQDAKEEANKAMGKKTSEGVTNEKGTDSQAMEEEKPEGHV
Description: Inhibition of GST-tagged human FKBP51 expressed in Escherichia coli BL21 (DE3) using NH2-EDASRMEEVD-COOH peptide as substrate preincubated for 15 mins followed by substrate addition measured after 15 mins by Alpha Screen assay. On the technique in general: Bead proximity is the source of the signal in Alpha formats.

In data set [3] the target is T3, Serine/threonine-protein phosphatase 5 (Homo sapiens, UniProt P53041).
T3 sequence (P53041 whole entry): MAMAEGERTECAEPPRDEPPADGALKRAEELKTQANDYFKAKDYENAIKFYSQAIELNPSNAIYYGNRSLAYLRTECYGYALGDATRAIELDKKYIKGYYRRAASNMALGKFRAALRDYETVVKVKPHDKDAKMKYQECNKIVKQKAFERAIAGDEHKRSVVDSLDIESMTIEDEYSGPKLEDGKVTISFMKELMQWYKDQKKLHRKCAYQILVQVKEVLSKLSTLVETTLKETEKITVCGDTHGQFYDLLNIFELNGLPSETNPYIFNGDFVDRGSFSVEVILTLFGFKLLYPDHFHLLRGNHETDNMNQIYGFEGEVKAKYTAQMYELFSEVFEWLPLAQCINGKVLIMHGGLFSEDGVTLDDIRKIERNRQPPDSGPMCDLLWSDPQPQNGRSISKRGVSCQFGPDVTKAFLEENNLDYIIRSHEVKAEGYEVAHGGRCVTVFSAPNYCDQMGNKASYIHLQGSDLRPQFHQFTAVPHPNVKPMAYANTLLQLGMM
Description: Inhibition of GST-tagged human PP5 expressed in Escherichia coli BL21 (DE3) using NH2-EDASRMEEVD-COOH peptide as substrate preincubated for 15 mins followed by substrate addition measured after 15 mins by Alpha Screen assay.

The target in data set [4] is T4, E3 ubiquitin-protein ligase CHIP (Homo sapiens, UniProt Q9UNE7).
T4 sequence (Q9UNE7 whole entry): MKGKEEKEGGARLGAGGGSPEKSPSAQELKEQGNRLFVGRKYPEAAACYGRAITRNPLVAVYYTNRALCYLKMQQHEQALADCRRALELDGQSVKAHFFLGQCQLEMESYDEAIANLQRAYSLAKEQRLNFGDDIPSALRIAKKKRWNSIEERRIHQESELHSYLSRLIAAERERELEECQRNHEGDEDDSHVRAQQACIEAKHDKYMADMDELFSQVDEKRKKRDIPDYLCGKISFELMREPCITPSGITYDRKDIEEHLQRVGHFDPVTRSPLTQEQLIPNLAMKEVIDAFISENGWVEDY
As to the kind of experiment: Inhibition of GST-tagged human CHIP expressed in Escherichia coli BL21 (DE3) using NH2-EDASRMEEVD-COOH peptide as substrate preincubated for 15 mins followed by substrate addition measured after 15 mins by Alpha Screen assay.

In data set [5] the target is Stress-induced-phosphoprotein 1 (Homo sapiens, UniProt P31948). Description: Inhibition of GST-tagged human HOP expressed in Escherichia coli BL21 (DE3) using NH2-EDASRMEEVD-COOH peptide as substrate preincubated for 15 mins followed by substrate addition measured after 15 mins by Alpha Screen assay.
Chain of Stress-induced-phosphoprotein 1 (P31948 whole entry): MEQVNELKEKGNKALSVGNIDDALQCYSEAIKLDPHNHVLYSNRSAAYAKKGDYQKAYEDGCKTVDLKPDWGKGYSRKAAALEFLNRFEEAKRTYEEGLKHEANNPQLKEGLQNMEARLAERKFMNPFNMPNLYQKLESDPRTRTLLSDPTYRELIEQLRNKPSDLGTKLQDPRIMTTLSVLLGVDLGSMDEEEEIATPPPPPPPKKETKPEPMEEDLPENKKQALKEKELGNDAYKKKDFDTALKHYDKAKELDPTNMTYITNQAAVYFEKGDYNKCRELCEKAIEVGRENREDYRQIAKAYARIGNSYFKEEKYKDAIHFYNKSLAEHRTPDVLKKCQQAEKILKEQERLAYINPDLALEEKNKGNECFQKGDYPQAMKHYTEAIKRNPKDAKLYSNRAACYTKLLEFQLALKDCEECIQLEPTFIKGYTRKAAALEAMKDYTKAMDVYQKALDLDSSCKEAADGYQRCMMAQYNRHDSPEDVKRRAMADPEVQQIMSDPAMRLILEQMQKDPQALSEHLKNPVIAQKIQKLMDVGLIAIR
Data set [6] addresses T5, AH receptor-interacting protein (Homo sapiens, UniProt O00170).
T5 sequence (O00170 whole entry): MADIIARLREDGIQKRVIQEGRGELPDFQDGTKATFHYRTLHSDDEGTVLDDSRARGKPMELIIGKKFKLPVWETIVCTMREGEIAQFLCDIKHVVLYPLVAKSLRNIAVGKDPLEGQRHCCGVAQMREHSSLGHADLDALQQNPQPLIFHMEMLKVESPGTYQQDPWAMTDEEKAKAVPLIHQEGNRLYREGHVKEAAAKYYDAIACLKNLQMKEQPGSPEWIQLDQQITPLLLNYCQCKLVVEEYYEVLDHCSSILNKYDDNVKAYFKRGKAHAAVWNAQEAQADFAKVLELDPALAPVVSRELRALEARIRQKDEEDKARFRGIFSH
Description: Inhibition of GST-tagged human AIP expressed in Escherichia coli BL21 (DE3) using NH2-EDASRMEEVD-COOH peptide as substrate preincubated for 15 mins followed by substrate addition measured after 15 mins by Alpha Screen assay.

The target of data set [7] is Small glutamine-rich tetratricopeptide repeat-containing protein alpha (Homo sapiens, UniProt O43765). As to the kind of experiment: Inhibition of GST-tagged human SGTA expressed in Escherichia coli BL21 (DE3) using NH2-EDASRMEEVD-COOH peptide as substrate preincubated for 15 mins followed by substrate addition measured after 15 mins by Alpha Screen assay.
Chain of Small glutamine-rich tetratricopeptide repeat-containing protein alpha (O43765 whole entry): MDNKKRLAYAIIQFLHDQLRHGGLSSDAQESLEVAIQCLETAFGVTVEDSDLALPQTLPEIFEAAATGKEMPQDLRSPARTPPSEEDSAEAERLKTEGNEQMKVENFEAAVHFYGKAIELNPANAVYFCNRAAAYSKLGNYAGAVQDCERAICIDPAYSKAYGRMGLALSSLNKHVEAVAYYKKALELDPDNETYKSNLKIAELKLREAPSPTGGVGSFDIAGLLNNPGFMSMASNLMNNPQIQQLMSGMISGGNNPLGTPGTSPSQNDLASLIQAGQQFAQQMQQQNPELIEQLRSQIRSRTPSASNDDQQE
The target of data set [8] is T6, DnaJ homolog subfamily C member 7 (Homo sapiens, UniProt Q99615).
T6 sequence (Q99615 whole entry): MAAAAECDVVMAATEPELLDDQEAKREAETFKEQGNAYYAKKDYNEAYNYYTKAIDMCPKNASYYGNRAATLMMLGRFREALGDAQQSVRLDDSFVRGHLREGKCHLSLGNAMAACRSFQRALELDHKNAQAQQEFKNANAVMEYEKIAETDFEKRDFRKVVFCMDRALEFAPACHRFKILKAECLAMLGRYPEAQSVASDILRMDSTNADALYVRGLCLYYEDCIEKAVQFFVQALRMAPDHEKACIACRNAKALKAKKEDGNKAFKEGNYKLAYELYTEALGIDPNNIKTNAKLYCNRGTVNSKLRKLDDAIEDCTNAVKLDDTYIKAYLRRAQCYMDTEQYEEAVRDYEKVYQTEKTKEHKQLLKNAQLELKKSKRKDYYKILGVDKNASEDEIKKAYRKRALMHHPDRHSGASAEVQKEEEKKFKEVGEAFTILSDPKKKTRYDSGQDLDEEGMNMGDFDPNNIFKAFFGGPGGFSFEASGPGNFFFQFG
As to the kind of experiment: Inhibition of GST-tagged human DNAJC7 expressed in Escherichia coli BL21 (DE3) using NH2-EDASRMEEVD-COOH peptide as substrate preincubated for 15 mins followed by substrate addition measured after 15 mins by Alpha Screen assay.

Data set [9] deals with T7, Mitochondrial import receptor subunit TOM70 (Homo sapiens, UniProt O94826).
T7 sequence (O94826 whole entry): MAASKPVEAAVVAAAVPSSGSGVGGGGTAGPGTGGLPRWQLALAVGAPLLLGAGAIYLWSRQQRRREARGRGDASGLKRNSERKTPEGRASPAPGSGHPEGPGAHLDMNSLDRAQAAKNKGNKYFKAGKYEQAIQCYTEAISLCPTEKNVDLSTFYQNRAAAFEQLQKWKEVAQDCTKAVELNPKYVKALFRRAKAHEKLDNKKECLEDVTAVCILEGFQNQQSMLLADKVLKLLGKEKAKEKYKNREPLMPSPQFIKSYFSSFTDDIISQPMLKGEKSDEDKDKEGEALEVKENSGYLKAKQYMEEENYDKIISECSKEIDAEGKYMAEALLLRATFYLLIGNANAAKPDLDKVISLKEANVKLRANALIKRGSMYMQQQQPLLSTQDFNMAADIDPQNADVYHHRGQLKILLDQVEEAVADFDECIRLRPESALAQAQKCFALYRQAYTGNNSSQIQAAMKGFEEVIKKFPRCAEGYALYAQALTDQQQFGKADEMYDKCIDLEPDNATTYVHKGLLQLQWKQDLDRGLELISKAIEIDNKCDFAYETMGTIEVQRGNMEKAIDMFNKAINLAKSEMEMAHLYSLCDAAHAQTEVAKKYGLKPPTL
As to the kind of experiment: Inhibition of GST-tagged human TOM70 expressed in Escherichia coli BL21 (DE3) using NH2-EDASRMEEVD-COOH peptide as substrate preincubated for 15 mins followed by substrate addition measured after 15 mins by Alpha Screen assay.

Data set [10] is described as follows: Inhibition of GST-tagged FKBP51 Y355F mutant (unknown origin) using NH2-EDASRMEEVD-COOH peptide as substrate preincubated for 15 mins followed by substrate addition measured after 15 mins by Alpha Screen assay. Also on record: species or system Homo sapiens.
A short description of data set [11]: Inhibition of GST-tagged FKBP51 N381Y mutant (unknown origin) using NH2-EDASRMEEVD-COOH peptide as substrate preincubated for 15 mins followed by substrate addition measured after 15 mins by Alpha Screen assay. Also on record: species or system Homo sapiens.
The conditions of data set [12]: buffer.
Description: Solubility of compound in aqueous solution

pIC50: −log10 of the molar value.

Broadly, the pIC50 is the negative decadic logarithm of the IC50, by convention in mol/L. A lower pIC50 goes with a large IC50. As to `CCC(=O)Nc1ccc(NC(=O)CSc2nc3cc4c(cc3cc2C)CCC4)cc1`, the pIC50 in [1] was 5.52. Same read-out and setting: in the case of `CCOC(=O)c1c(NC(=O)CSc2n[nH]c(CNc3ccccc3)n2)sc(C)c1C` it was 5.10. As for `CCc1nnc(NC(=O)CSc2nc(-c3ccc(C)cc3)cc(-c3ccc(OC)cc3)c2C#N)o1`, the pIC50 in data set [2] is 5.70; in data set [1] it was 5.52. The compound `CCOC(=O)c1c(NC(=O)CSc2nnc(-c3cccc(O)c3)o2)sc(C)c1C` gave a pIC50 in data set [1] of 5.52. Same read-out and setting: in the case of `CCOC(=O)CC(=O)CSc1nc(C)c2cc(OCC)ccc2n1` it was 5.05. Take `CCC1CCc2c(sc(NC(=O)CCCC(=O)Nc3sc4c(c3C(N)=O)CCC(CC)C4)c2C(N)=O)C1` (stereo not drawn): the solubility entry was “Insoluble”. The pIC50 in data set [3] is 7.52. Further, in [4], the pIC50 was 6.00. In [5], the negative logarithm of the IC50 (pIC50) was 5.00. Moreover, the negative-log IC50 (pIC50) in [6] is 5.00. In data set [7], the negative logarithm of the IC50 (pIC50) is 7.00. In data set [8], this compound gave a negative-log IC50 (pIC50) of 6.00. Moreover, the negative-log IC50 (pIC50) in data set [9] is 5.82. In [10], this compound gave a negative-log IC50 (pIC50) of 4.40. The compound also had a pIC50 in data set [11] of 7.30. Further, in [12], the solubility result was “Insoluble”.

`CCS(=O)(=O)Nc1ccc(-c2nnc(SCC(=O)c3c(C)c(C)cc(C)c3C)o2)cc1` had a pIC50 in [1] of 5.22. Same read-out and setting: in the case of `Cc1ccc(NC(=O)c2cc(NC(=O)c3ccccc3)cc(NC(=O)c3ccccc3)c2)cc1C` it was under 4.00.

`O=C(CSc1nnc(-c2ccc(S(=O)(=O)N3CCCC3)cc2)o1)Nc1ccc(F)cc1` showed a negative logarithm of the IC50 (pIC50) in [1] of 5.22.

Compound `CCOc1ccc2cc(C#N)c(SCC(=O)NCCc3ccccc3)nc2c1` gave a negative logarithm of the IC50 (pIC50) in [1] of 5.30.

The compound `CCOc1ccc2cc(C#N)c(SCC(=O)Nc3cccc(F)c3)nc2c1` had a negative-log IC50 (pIC50) in data set [1] of 5.22. On to `CCC(=O)Nc1ccc(NC(=O)CSc2nc3cc4c(cc3cc2C)CCC4)cc1C`, for which, in data set [1], the negative-log IC50 (pIC50) was 5.30.
